Assay results from PMC3740138, “Bile acids induce apoptosis selectively in androgen-dependent and -independent prostate cancer cells” (PeerJ, 2013).
One block for each molecule: values may come before it.

How the values were obtained:
PC-3 cells [1] = test: Percentage of intact cells (Hoechst 33342 / propidium iodide counting), PC-3; format: cell-based, human; conditions: for Concentrations decreasing cell viability / number of intact cells: PC-3, 48 h, tested 10–500 µM; for Effect of caspase inhibitor on LCA-induced cell death: PC-3, 24 h co-exposure, 50 µM LCA + 10 µM inhibitor
Procedure: (§1) For apoptotic and necrotic cell death measurements, LNCaP and PC-3 cells were seeded at densities of 1 × 10^5 and 0.5 × 10^5 cells/ml, respectively, in 24-well plates in 2% stripped-FBS. Cells were then treated with several concentrations of bile acids in the presence (LNCaP) or absence (PC-3) of 0.1 nM DHT. […] After a 15 min incubation at 37°C, cells were observed and counted under a Nikon Eclipse (TE-2000U) inverted fluorescent microscope at 20× magnification. […] To measure mitochondrial membrane potential (MMP), cells were treated with LCA for 1, 4 or 8 h, and tetramethylrhodamine ethyl ester (TMRE) was added to each well at a final concentration of 50 nM. TMRE is a cell permeable, positively charged dye that accumulates in active negatively charged mitochondria.
(§2) All experiments were performed in at least triplicate using cells after various passages and the data are presented as mean ± SEM. Statistically significant differences (p < 0.05) between various treatments and untreated cells were determined using a two-tailed Student t-test with Bonferroni correction for multiple comparisons. IC50 values for inhibition of cell viability were calculated using a sigmoidal curve-fitting model of log-inhibitor concentration versus normalized inhibition response, with variable slope (GraphPad Prism v5.03, GraphPad Software, San Diego, CA).

LNCaP cells [2] = test: Percentage of intact cells (Hoechst 33342 / propidium iodide counting), LNCaP; format: cell-based, human; conditions: for Concentrations decreasing cell viability / number of intact cells: 48 h, tested 10–500 µM; for Effect of caspase inhibitor on LCA-induced cell death: 24 h co-exposure, 40 µM LCA + 10 µM inhibitor
Procedure: as §1, §2

caspase-9 [3] = test: Caspase-9 activity (Ac-LEHD-AFC cleavage) in LNCaP cell extracts; format: cell-based, human; conditions: 24 h, 25–75 µM
Procedure: (§3) PC-3 and LNCaP cells were seeded in 6-well plates at densities of 400000 or 750000 cells per well, respectively, in 0.5 ml culture medium containing 2% stripped FBS and 24 h later they were exposed to various concentrations of LCA in fresh medium for another 24 h. Proteins were then extracted from harvested cells using 1× RIPA buffer (Millipore, Billerica, MA) containing 1× protease inhibitor cocktail, centrifuged at 13,000 g for 5 min at 4°C to remove cell debris, and frozen at −80°C overnight. Protein concentrations were then quantified using a BCA protein detection kit (Thermo Scientific, Waltham, MA). Caspase activities were determined using fluorogenic caspase substrates selective for either caspase-3 (5 µM Ac-DEVD-AFC), caspase-9 (10 µM Ac-LEHD-AFC) or caspase-8 (10 µM Ac-IETD-AFC) in 10 µg of extracted protein suspended in caspase reaction buffer (20 mM PIPES at pH 7.2, 30 mM NaCl, 10 mM DTT, 1 mM EDTA, 0.1% CHAPS, 10% sucrose). The time-dependent release of 7-amino-4-trifluoromethyl coumarin (AFC) was measured using a SpectroMax M5 microplate reader (Molecular Devices, Sunnydale, CA) at an excitation wavelength of 400 nm and an emission wavelength of 505 nm. Measurements were recorded at 2 min intervals for 90 min. A standard curve of AFC fluorescence was used to calculate the amount of AFC released (in picomoles) during each reaction.

caspase-3 [4] = test: Caspase-3 activity (Ac-DEVD-AFC cleavage) in PC-3 cell extracts; format: cell-based, human; conditions: PC-3, 24 h, 25–75 µM
Procedure: as §3

caspase-8 [5] = test: Caspase-8 activity (Ac-IETD-AFC cleavage) in LNCaP cell extracts; format: cell-based, human; conditions: 24 h, 25–75 µM
Procedure: as §3

[6] = system: PC-3 human prostate cancer cells; test: Extra/intracellular distribution by mass spectrometry, PC-3; format: in vitro ADME; conditions: for % of compound recovered, Cells / % of compound recovered, Medium: 24 h, mean ± SD
Procedure: (§4) Mass spectrometry-based analysis of LCA and UDCA was performed as previously reported ([Bourque & Titorenko, 2009]). […] The extracted lipids were dried under nitrogen and resuspended in chloroform. Immediately prior to injection the extracted lipids were combined with a 2:1 methanol:chloroform mixture supplemented with 0.1% (v/v) ammonium hydroxide. The sample was injected directly into a Thermo Orbitrap Velos equipped with a HESI-II ion source (Thermo Scientific, Waltham, MA, USA) at a flow rate of 5 µl/min. Spectra were obtained in negative-ion mode. The source voltage was set to 4.0 kV, a capillary temperature of 275°C, a sheath gas flow of 5 (arbitrary units) and an auxiliary gas flow of 1 (arbitrary units). Acquired spectra were exported from Xcalibur software (Thermo Scientific) and then deconvoluted and deisotoped using Excel macros.

PC-3 cells [7] = test: Western blot of apoptosis proteins, PC-3; format: cell-based, human; conditions: PC-3, 24 h
Procedure: (§5) Crude protein extracts (50 µg) were resolved by electrophoresis using 10% sodium dodecyl sulfate-polyacrylamide gels and then transferred to a PVDF Immobilon-P membrane (Bio-Rad, Mississauga, ON). Blots were blocked using 5% milk powder (Selection brand, Marché Jean-Talon, Montréal, QC) and incubated with antibodies as follows: 1:250 dilution for anti-caspase-3, 1:1000 for anti-cleaved PARP, 1:1000 for anti-Bcl-2, 1:1000 for anti-Bax, and 1:1000 for anti-Bid. Immunoreactive proteins were exposed to anti-rabbit horseradish peroxidise-conjugated secondary antibodies (Millipore) that were diluted 1:5000. Antigen-antibody complexes were detected using Immobilon ECL Western Chemiluminescent HRP Substrate (Millipore) and recorded with a Versadoc imaging system (Bio-Rad). Total protein content per well was determined using 1 × Amido Black staining solution (Sigma-Aldrich).

caspase-9 [8] = test: Caspase-9 activity (Ac-LEHD-AFC cleavage) in PC-3 cell extracts; format: cell-based, human; conditions: PC-3, 24 h, 25–75 µM
Procedure: as §3

caspase-3 [9] = test: Caspase-3 activity (Ac-DEVD-AFC cleavage) in LNCaP cell extracts; format: cell-based, human; conditions: 24 h, 25–75 µM
Procedure: as §3

LNCaP cells [10] = test: Western blot of apoptosis proteins, LNCaP; format: cell-based, human; conditions: 24 h, 25–75 µM
Procedure: as §5

PC-3 cells [11] = test: Mitochondrial membrane potential (TMRE), PC-3; format: cell-based, human; conditions: PC-3, 75 µM, as early as after 1 h
caspase-8 [12] = test: Caspase-8 activity (Ac-IETD-AFC cleavage) in PC-3 cell extracts; format: cell-based, human; conditions: PC-3, 24 h, 25–75 µM
Procedure: as §3

[13] = system: LNCaP human prostate cancer cells; test: Extra/intracellular distribution by mass spectrometry, LNCaP; format: in vitro ADME; conditions: for % of compound recovered, Cells / % of compound recovered, Medium: LNCaP, 24 h, mean ± SD
Procedure: as §4

LNCaP cells [14] = test: DHT-stimulated LNCaP cell proliferation (real-time impedance, E-plates); format: cell-based, human
RWPE-1 cells = test: Percentage of intact cells (Hoechst 33342 / propidium iodide counting), RWPE-1; format: cell-based, human; conditions: RWPE-1, 48 h, 50 or 75 µM
PC-3 cells [15] = system: PC-3 cells; set-up: method as in Choi et al., 2003; conditions: ref Choi et al., 2003; cited from earlier work

Molecule: C[C@H](CCC(=O)O)[C@H]1CC[C@H]2[C@@H]3CC[C@@H]4C[C@H](O)CC[C@]4(C)[C@H]3C[C@H](O)[C@]12C [DCA, deoxycholic acid]
- Concentrations decreasing cell viability / number of intact cells (PC-3 cells [1]): above 100 µM
- Concentrations decreasing cell viability / number of intact cells (LNCaP cells [2]): above 100 µM

Molecule: C[C@H](CCC(=O)O)[C@H]1CC[C@H]2[C@@H]3C[C@H](O)[C@@H]4C[C@H](O)CC[C@]4(C)[C@H]3CC[C@]12C [HDCA, hyodeoxycholic acid]
- Concentrations decreasing cell viability / number of intact cells (PC-3 cells [1]): above 300 µM
- Concentrations decreasing cell viability / number of intact cells (LNCaP cells [2]): above 300 µM

Molecule: z-DEVD-fmk
- Effect of caspase inhibitor on LCA-induced cell death (PC-3 cells [1]): partially inhibited
- Effect of caspase inhibitor on LCA-induced cell death (LNCaP cells [2]): partially inhibited

- IC50 (PC-3 cells [1]; Homo sapiens, PC-3, 48 h treatment, read-out: IC50 for decrease in number of intact cells): 74.9 ± 0.25 µM
- IC50 (LNCaP cells [2]; Homo sapiens, 48 h treatment, with 0.1 nM DHT, read-out: IC50 for decrease in number of intact cells): 40.5 ± 0.07 µM
- % of compound recovered, Cells ([6]; PC-3, 50 µM): 2.09 ± 0.05%
- % of compound recovered, Medium ([6]; PC-3, 50 µM): 97.91 ± 0.05%
- % of compound recovered, Cells ([6]; PC-3, 75 µM): 2.39 ± 1.93%
- % of compound recovered, Medium ([6]; PC-3, 75 µM): 97.61 ± 1.93%
- % of nominal concentration present in extracellular medium ([6]; PC-3 cultures after 24 h): ≤ 98%
- % of nominal concentration present in extracellular medium ([13]; LNCaP cultures after 24 h): ≤ 98%
- % of compound recovered, Cells ([13]; 25 µM): 2.72 ± 1.10%
- % of compound recovered, Medium ([13]; 25 µM): 97.28 ± 1.10%
- % of compound recovered, Cells ([13]; 50 µM): 5.85 ± 2.45%
- % of compound recovered, Medium ([13]; 50 µM): 94.15 ± 2.45%
- IC50 (LNCaP cells [14]; Homo sapiens, LNCaP, co-treated with 0.1 nM DHT, 72 h, read-out: IC50 for inhibition of proliferation of androgen-stimulated cells): 8.5 µM
Molecule: C[C@H](CCC(=O)O)[C@H]1CC[C@H]2[C@@H]3CC[C@@H]4C[C@H](O)CC[C@]4(C)[C@H]3CC[C@]12C [LCA, Lithocholic acid]
- Caspase-9 activity (caspase-9 [3]): statistically significant increases
- Catalytic activity of caspase-3 (caspase-3 [4]): increased
- Levels of active caspase-8 (caspase-8 [5]): increased levels
- Levels of 89 kDa PARP fragment elevated (PC-3 cells [7]): not in PC-3 cells
- Bcl-2 levels (PC-3 cells [7]; 25–75 µM): decreased levels
- Effect on pro-apoptotic proteins Bax and Bid (PC-3 cells [7]; 25–75 µM): cleavage
- Levels of cleaved, active 17 and 20 kDa caspase-3 subunits (PC-3 cells [7]; 25–75 µM): increased levels
- Caspase-9 activity (caspase-9 [8]): statistically significant increases
- Catalytic activity of caspase-3 (caspase-3 [9]): increased
- Effect on pro-apoptotic proteins Bax and Bid (LNCaP cells [10]): cleavage
- Levels of 89 kDa PARP fragment (LNCaP cells [10]): significantly elevated
- Levels of cleaved, active 17 and 20 kDa caspase-3 subunits (LNCaP cells [10]): increased levels
- Change in mitochondrial membrane potential (MMP) (PC-3 cells [11]): marked decrease
- Levels of active caspase-8 (caspase-8 [12]): increased levels
- Concentrations that inhibit proliferation of AD prostate cancer cells (LNCaP cells [14]; well below those needed to induce apoptosis): 2.5 to 10 µM
- Effect on viability of non-tumorigenic cells (RWPE-1 cells): without decreasing the viability

Molecule: C[C@H](CCC(=O)O)[C@H]1CC[C@H]2[C@@H]3[C@H](O)C[C@@H]4C[C@H](O)CC[C@]4(C)[C@H]3CC[C@]12C [CDCA, chenodeoxycholic acid]
- Concentrations that did not result in significant cell death (PC-3 cells [15]): > 100 µM
- Concentrations decreasing cell viability / number of intact cells (PC-3 cells [1]): above 100 µM
- Concentrations decreasing cell viability / number of intact cells (LNCaP cells [2]): above 100 µM

Molecule: z-IETD-fmk
- Effect of caspase inhibitor on LCA-induced cell death (PC-3 cells [1]): alleviated
- Effect of caspase inhibitor on LCA-induced cell death (LNCaP cells [2]): alleviated

- % of compound recovered, Cells ([6]; PC-3, 50 µM): 2.44 ± 0.17%
- % of compound recovered, Medium ([6]; PC-3, 50 µM): 97.56 ± 0.17%
- % of compound recovered, Cells ([6]; PC-3, 75 µM): 2.43 ± 0.67%
- % of compound recovered, Medium ([6]; PC-3, 75 µM): 97.57 ± 0.67%
- % of compound recovered, Cells ([13]; 25 µM): 9.60 ± 3.86%
- % of compound recovered, Medium ([13]; 25 µM): 90.40 ± 3.86%
- % of compound recovered, Cells ([13]; 50 µM): 4.23 ± 0.10%
- % of compound recovered, Medium ([13]; 50 µM): 95.77 ± 0.10%
Molecule: C[C@H](CCC(=O)O)[C@H]1CC[C@H]2[C@@H]3[C@@H](O)C[C@@H]4C[C@H](O)CC[C@]4(C)[C@H]3CC[C@]12C [UDCA, ursodeoxycholic acid, reference compound]
- Concentrations that did not result in significant cell death (PC-3 cells [15]): > 100 µM
- Concentrations decreasing cell viability / number of intact cells (PC-3 cells [1]): above 300 µM
- Concentrations decreasing cell viability / number of intact cells (LNCaP cells [2]): above 300 µM

Molecule: C[C@H](CCC(=O)O)[C@H]1CC[C@H]2[C@@H]3[C@H](O)C[C@@H]4C[C@H](O)CC[C@]4(C)[C@H]3C[C@H](O)[C@]12C [CA, cholic acid]
- Concentrations decreasing cell viability / number of intact cells (PC-3 cells [1]): > 500 µM
- Concentrations decreasing cell viability / number of intact cells (LNCaP cells [2]): > 500 µM
